Test results as given in US7589201B2, “Derivatives of 1,4-diazabicyclo[3.2.1]octanecarboxamide, preparation method thereof and use of same in therapeutics” (Sanofi-Aventis, priority 2004, dated 2009).
Where a name gives a salt, the structure may show the parent alone.

Key:
[1] = target: nicotinic receptors containing the α7 subunit (Rattus norvegicus, UniProt Q05941); assay: biochemical; assay type: binding
[2] = target: nicotinic receptors containing the α4β2 subunit (Rattus norvegicus, UniProt P09483+P12390); assay: [3H]-cytisine binding to rat brain membranes, affinity for α4β2 nicotinic receptors; details: inhibition of specific binding of 1 nM [3H]-cytisine, rat whole brain membranes
Procedure: For instance, they were studied with regard to their affinity for nicotinic receptors containing the α4β2 subunit in accordance with the methods described by Anderson and Arneric in Eur. J. Pharmacol. 1994, 253, 261 and by Hall et al. in Brain Res. 1993, 600, 127. Male Sprague Dawley rats weighing 150 to 200 g are decapitated and the whole brain is removed rapidly, homogenized in 15 volumes of 0.32 M sucrose solution at […] and then centrifuged at 1000 G for 10 min. The pellet is discarded and the supernatant is centrifuged at 20,000 G at 4° C. for 20 min. The pellet is recovered and homogenized using a Polytron™ mill in 15 volumes of double-distilled water at 4° C., then centrifuged at 8,000 G for 20 min. […]
On the day of the experiment the tissue is slowly thawed and is suspended in 3 volumes of buffer. […] The reaction is stopped by filtration on Whatman GF/B™ filters pretreated with polyethyleneimine, the filters are rinsed with twice 5 ml of buffer at 4° C. and the radioactivity retained on the filter is measured by liquid scintigraphy. The non-specific binding is determined in the presence of 10 μM (−)-nicotine; the nonspecific binding represents 75% to 85% of the total binding recovered on the filter. […]

nicotinic receptors containing the α7 subunit, sequence (Q05941 23-502): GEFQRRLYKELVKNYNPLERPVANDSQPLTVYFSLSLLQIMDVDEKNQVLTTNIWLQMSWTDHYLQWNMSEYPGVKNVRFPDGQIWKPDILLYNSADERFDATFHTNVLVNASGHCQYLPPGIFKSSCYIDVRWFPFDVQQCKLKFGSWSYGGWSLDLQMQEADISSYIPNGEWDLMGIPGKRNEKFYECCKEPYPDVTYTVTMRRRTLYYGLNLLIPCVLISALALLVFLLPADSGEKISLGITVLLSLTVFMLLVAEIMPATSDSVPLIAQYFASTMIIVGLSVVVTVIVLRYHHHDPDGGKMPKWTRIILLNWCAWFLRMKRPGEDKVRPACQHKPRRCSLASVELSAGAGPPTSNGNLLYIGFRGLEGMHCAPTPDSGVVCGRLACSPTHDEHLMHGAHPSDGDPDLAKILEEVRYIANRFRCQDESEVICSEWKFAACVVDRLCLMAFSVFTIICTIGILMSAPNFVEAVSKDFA
nicotinic receptors containing the α4β2 subunit, sequence (P09483 31-630): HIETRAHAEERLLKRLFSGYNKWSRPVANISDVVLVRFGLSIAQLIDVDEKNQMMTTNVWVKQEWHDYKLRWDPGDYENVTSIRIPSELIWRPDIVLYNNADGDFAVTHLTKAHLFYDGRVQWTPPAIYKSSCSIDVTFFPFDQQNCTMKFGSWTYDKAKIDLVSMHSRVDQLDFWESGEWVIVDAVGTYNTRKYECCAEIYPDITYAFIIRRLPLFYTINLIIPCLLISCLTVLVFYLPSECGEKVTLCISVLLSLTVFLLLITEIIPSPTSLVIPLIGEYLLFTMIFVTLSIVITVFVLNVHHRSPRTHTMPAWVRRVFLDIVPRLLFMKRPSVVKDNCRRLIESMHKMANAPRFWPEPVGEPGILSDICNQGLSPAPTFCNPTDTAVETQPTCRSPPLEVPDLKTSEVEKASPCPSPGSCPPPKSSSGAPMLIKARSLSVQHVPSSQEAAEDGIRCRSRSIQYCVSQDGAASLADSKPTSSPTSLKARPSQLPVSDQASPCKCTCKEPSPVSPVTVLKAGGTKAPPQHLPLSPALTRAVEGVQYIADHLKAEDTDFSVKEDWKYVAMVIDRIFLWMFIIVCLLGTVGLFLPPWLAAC
nicotinic receptors containing the α4β2 subunit, sequence (P12390 25-500): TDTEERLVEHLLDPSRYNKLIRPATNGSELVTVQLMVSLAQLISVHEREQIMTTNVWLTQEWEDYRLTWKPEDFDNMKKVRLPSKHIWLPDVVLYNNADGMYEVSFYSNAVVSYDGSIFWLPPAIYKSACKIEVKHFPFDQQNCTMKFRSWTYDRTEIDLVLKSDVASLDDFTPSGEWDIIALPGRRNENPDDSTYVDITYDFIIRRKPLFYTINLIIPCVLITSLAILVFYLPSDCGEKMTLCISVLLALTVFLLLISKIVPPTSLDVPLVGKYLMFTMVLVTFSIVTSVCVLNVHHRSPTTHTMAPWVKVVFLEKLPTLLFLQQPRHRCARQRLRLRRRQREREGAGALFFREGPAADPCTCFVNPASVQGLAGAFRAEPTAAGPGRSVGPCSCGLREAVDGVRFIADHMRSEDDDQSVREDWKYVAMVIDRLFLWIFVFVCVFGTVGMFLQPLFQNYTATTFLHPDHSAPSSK

SMILES	IC50 [1] [nM]	IC50 [2] [nM]
Cc1ccc2c(C(=O)N3CCN4CCC3C4)n[nH]c2n1 (racemic) [Compound 1, 3-(1,4-Diazabicyclo[3.2.1]oct-4-ylcarbonyl)-6-methyl-1H-pyrazolo[3,4-b]pyridine hydrobromide 2:1]	56	> 10000
O=C(c1n[nH]c2ccc(F)cc12)N1CCN2CCC1C2 (racemic) [Compound 4, 3-(1,4-Diazabicyclo[3.2.1]oct-4-ylcarbonyl)-5-fluoro-1H-indazole hydrobromide 2:1]	55	–
